For data set [1], the system named is Escherichia coli JR66/W677. The data set can be described thus: microbe, parasite or virus in culture. It is filed as cell-based. The following applies: JR66/W677, 18 h.
For the next data set, the system named is Escherichia coli K-12 R5. Briefly: MIC, serial dilution on Mueller Hinton agar. It is filed as cell-based. The following applies: K12R5, 18 h.
A further data set concerns Serratia marcescens. The data set can be described thus: MIC, serial dilution on Mueller Hinton agar. It is filed as cell-based. Conditions: Mueller Hinton agar, 37°C, 18 hours, read-out: MIC.
The next data set concerns Escherichia coli JR225. Briefly: microbe, parasite or virus in culture. It is filed as cell-based. The following applies: Escherichia coli, JR225, 18 h.
In a further data set the test system is Proteus rettgeri GN 311. Briefly: MIC, serial dilution on Mueller Hinton agar. The class given is cell-based. Conditions: Providencia rettgeri.
The subject of data set [2] is Staphylococcus aureus Ap01. Briefly: MIC, serial dilution on Mueller Hinton agar. It is filed as cell-based. Conditions: Staphylococcus aureus Ap01, resistance mechanism ANT(4'); Mueller Hinton agar, 37°C, 18 hours; read-out: MIC.
Data set [3] relates to Corynebacterium bovis 1810. Briefly: MIC, serial dilution on Mueller Hinton agar. The class given is cell-based. Conditions: Corynebacterium bovis 1810; Mueller Hinton agar, 37°C, 18 hours; read-out: MIC.
Data set [4] deals with Pseudomonas aeruginosa GN 315. The data set can be described thus: MIC, serial dilution on Mueller Hinton agar. Conditions: GN315; Pseudomonas aeruginosa GN 315, resistance mechanism AAC(6'); Mueller Hinton agar, 37°C, 18 hours; read-out: MIC. It is filed as cell-based.
In data set [5] the test system is Staphylococcus aureus 209P. Briefly: MIC, serial dilution on Mueller Hinton agar. It is filed as cell-based.
The next data set relates to Escherichia coli K-12. Briefly: MIC, serial dilution on Mueller Hinton agar. The class given is cell-based.
In data set [6] the test system is Klebsiella pneumoniae 22#3038. The data set can be described thus: MIC, serial dilution on Mueller Hinton agar. It is filed as cell-based. The following applies: Klebsiella pneumoniae 22#3038, resistance mechanism APH(3')-II, ANT(2"), 37°C, 18 hours. The text has this: The antibacterial spectra so determined of the new compounds No. 1 to No. 13 (each in the form of the free base) of this invention are as shown in Table 1 below.

The test system of the next data set is Mycobacterium 607. The data set can be described thus: MIC, serial dilution on Mueller Hinton agar. It is filed as cell-based.
Data set [7] deals with Pseudomonas aeruginosa A3. The data set can be described thus: MIC, serial dilution on Mueller Hinton agar. It is filed as cell-based.
The test system of data set [8] is Escherichia coli K-12 ML 1629. The data set can be described thus: MIC, serial dilution on Mueller Hinton agar. It is filed as cell-based. The following applies: K12ML1629, Escherichia coli K-12 ML 1629, resistance mechanism APH(3')-I, 37°C, 18 hours.
The subject of data set [9] is Escherichia coli K-12 LA 290 R55. Briefly: MIC, serial dilution on Mueller Hinton agar. It is filed as cell-based. The following applies: Escherichia coli, K12LA290R55, 18 h.
For a further data set, the system named is Providencia sp. Pv 16. Briefly: MIC, serial dilution on Mueller Hinton agar. The class given is cell-based.
The subject of the next data set is Bacillus subtilis PCI219. Briefly: MIC, serial dilution on Mueller Hinton agar. The class given is cell-based.
The next data set in a line: in vivo. The following applies: mouse, iv.
Setting [10] is: GN311, Proteus rettgeri GN 311, Mueller Hinton agar, 37°C, 18 hours, read-out: MIC.
[11] abbreviates: Staphylococcus aureus 209P, Mueller Hinton agar, 37°C, 18 hours, read-out: MIC.
Where [12] appears, read: K12, Escherichia coli K-12, Mueller Hinton agar, 37°C, 18 hours, read-out: MIC.
Setting [13] is: Mycobacterium 607, Mueller Hinton agar, 37°C, incubated for 40 hours, read-out: MIC.
Where [14] appears, read: Pseudomonas aeruginosa A3, Mueller Hinton agar, 37°C, 18 hours, read-out: MIC.
Setting [15] is: Bacillus subtilis PCI219, Mueller Hinton agar, 37°C, 18 hours, read-out: MIC.
Where [16] appears, read: SP.PV16, Providencia sp. Pv 16, resistance mechanism AAC(2'), Mueller Hinton agar, 37°C, 18 hours, read-out: MIC.

In brackets after ≈: the same amount, converted by molar mass. Where two headings read alike, the source gives them in different places.

In patent publication EP0259014A2, “5-Deoxy-5-fluorokanamycin B derivatives and processes for the production thereof” (ZAIDAN HOJIN BISEIBUTSU KAGAKU KENKYU KAI, priority 1986, dated 1988) one finds MIC and LD50 data, which are given here for five molecules.

As for `NC[C@@H]1C[C@H](O)[C@@H](N)[C@@H](O[C@H]2[C@H](F)[C@@H](O[C@H]3O[C@H](CO)[C@@H](O)[C@H](N)[C@H]3O)[C@H](N)C[C@@H]2N)O1` [Compound No. 3, 5,4'-Dideoxy-5-fluorokanamycin B], the MIC in data set [1] was over 100 µg/mL; against Escherichia coli K-12 R5, 100 µg/mL (≈ 213 µM); in the data set with Serratia marcescens, 12.5 µg/mL (≈ 26.6 µM); against Escherichia coli JR225 it was 6.25 µg/mL (≈ 13.3 µM); in the data set on Proteus rettgeri GN 311 (setting [10]), 0.2 µg/mL (≈ 0.426 µM); in data set [2], 0.78 µg/mL (≈ 1.66 µM). The MIC in data set [3] was 0.78 µg/mL (≈ 1.66 µM); in data set [4], 100 µg/mL (≈ 213 µM); in data set [5] (setting [11]), 0.39 µg/mL (≈ 0.831 µM); in the data set on Escherichia coli K-12 (setting [12]) it was 1.56 µg/mL (≈ 3.32 µM); in data set [6], over 100 µg/mL; with Mycobacterium 607 (setting [13]), 3.12 µg/mL (≈ 6.65 µM). Also, the MIC in data set [7] (setting [14]) was 3.12 µg/mL (≈ 6.65 µM); in data set [8], over 100 µg/mL; in [9], 6.25 µg/mL (≈ 13.3 µM); against Providencia sp. Pv 16 (Providencia, SP.PV16, 18 h) it was 6.25 µg/mL (≈ 13.3 µM); in the data set on Bacillus subtilis PCI219 (setting [15]) it was 0.39 µg/mL (≈ 0.831 µM).
Take `NCC[C@H](O)C(=O)N[C@@H]1C[C@H](N)[C@@H](O[C@H]2O[C@H](CN)[C@@H](O)[C@H](O)[C@H]2N)[C@H](F)[C@H]1O[C@H]1O[C@H](CO)[C@@H](O)[C@H](N)[C@H]1O` [Compound No. 6, 1-N-(4-Amino-2-(S)-hydroxybutyryl)-5-deoxy-5-fluorokanamycin B]: the MIC in data set [1] is 0.78 µg/mL (≈ 1.33 µM); against Escherichia coli K-12 R5, 12.5 µg/mL (≈ 21.3 µM); in the data set on Serratia marcescens it was 1.56 µg/mL (≈ 2.66 µM); in the data set with Escherichia coli JR225 it was under 0.2 µg/mL; in the data set with Proteus rettgeri GN 311 (setting [10]), under 0.2 µg/mL; in data set [2], 6.25 µg/mL (≈ 10.7 µM). The MIC in data set [3] is under 0.2 µg/mL; in data set [4] it was 6.25 µg/mL (≈ 10.7 µM); in data set [5] (setting [11]) it was 0.39 µg/mL (≈ 0.665 µM); in the data set with Escherichia coli K-12 (setting [12]) it was under 0.2 µg/mL; in data set [6] it was 3.12 µg/mL (≈ 5.32 µM); in the data set on Mycobacterium 607 (Mycobacterium, 607, 40 h) it was 12.5 µg/mL (≈ 21.3 µM). Also, the MIC in [7] (setting [14]) was under 0.2 µg/mL; in data set [8], 0.78 µg/mL (≈ 1.33 µM); in [9], 0.78 µg/mL (≈ 1.33 µM); in the data set on Providencia sp. Pv 16 (setting [16]), 0.78 µg/mL (≈ 1.33 µM); in the data set on Bacillus subtilis PCI219 (setting [15]) it was 0.39 µg/mL (≈ 0.665 µM).
On to `NC[C@H]1O[C@H](O[C@H]2[C@H](O)[C@@H](O[C@H]3O[C@H](CO)[C@@H](O)[C@H](N)[C@H]3O)[C@H](N)C[C@@H]2N)[C@H](N)[C@@H](O)[C@@H]1O` [KMB, kanamycin B], for which the MIC is over 100 µg/mL in data set [1]; 50 µg/mL (≈ 103 µM) in the data set with Escherichia coli K-12 R5; 3.12 µg/mL (≈ 6.45 µM) in the data set with Serratia marcescens; 12.5 µg/mL (≈ 25.9 µM) against Escherichia coli JR225; 0.2 µg/mL (≈ 0.414 µM) against Proteus rettgeri GN 311 (GN311, 18 h); 25 µg/mL (≈ 51.7 µM) in [2]. The MIC in data set [3] was 0.78 µg/mL (≈ 1.61 µM); in data set [4], 50 µg/mL (≈ 103 µM); in data set [5] (Staphylococcus aureus, 209P, 18 h), 0.39 µg/mL (≈ 0.807 µM); with Escherichia coli K-12 (Escherichia coli, K12, 18 h), 0.39 µg/mL (≈ 0.807 µM); in data set [6] it was over 100 µg/mL; with Mycobacterium 607 (setting [13]), 1.56 µg/mL (≈ 3.23 µM). Also, the MIC in data set [7] (Pseudomonas aeruginosa, A3, 18 h) is 1.56 µg/mL (≈ 3.23 µM); in data set [8] it was over 100 µg/mL; in [9], 12.5 µg/mL (≈ 25.9 µM); against Providencia sp. Pv 16 (Providencia, SP.PV16, 18 h), 12.5 µg/mL (≈ 25.9 µM); with Bacillus subtilis PCI219 (Bacillus subtilis, PCI219, 18 h) it was under 0.2 µg/mL. Also, the LD50 – broadly, the dose at which mortality reaches 50% – in the data set “in vivo” came out at 110 mg/kg.
Take `NCC[C@H](O)C(=O)N[C@@H]1C[C@H](N)[C@@H](O[C@H]2O[C@H](CN)CC[C@H]2N)[C@H](F)[C@H]1O[C@H]1O[C@H](CO)[C@@H](O)[C@H](N)[C@H]1O` [Compound No. 13, 1-N-(4-Amino-2-(S)-hydroxybutyryl)-5,3',4-trideoxy-5-fluorokanamycin B]: the MIC was 0.78 µg/mL (≈ 1.41 µM) in data set [1]; 50 µg/mL (≈ 90.2 µM) in the data set on Escherichia coli K-12 R5; 1.56 µg/mL (≈ 2.81 µM) in the data set on Serratia marcescens; 0.2 µg/mL (≈ 0.361 µM) against Escherichia coli JR225; under 0.2 µg/mL in the data set with Proteus rettgeri GN 311 (setting [10]); 0.78 µg/mL (≈ 1.41 µM) in [2]. In addition, the MIC in [3] was under 0.2 µg/mL; in [4] it was 6.25 µg/mL (≈ 11.3 µM); in data set [5] (setting [11]), 0.39 µg/mL (≈ 0.703 µM); in the data set with Escherichia coli K-12 (setting [12]), 0.2 µg/mL (≈ 0.361 µM); in data set [6], 0.78 µg/mL (≈ 1.41 µM); in the data set with Mycobacterium 607 (setting [13]), 0.78 µg/mL (≈ 1.41 µM). The MIC came out at 0.39 µg/mL (≈ 0.703 µM) in [7] (setting [14]); 0.39 µg/mL (≈ 0.703 µM) in [8]; 0.78 µg/mL (≈ 1.41 µM) in [9]; 0.78 µg/mL (≈ 1.41 µM) with Providencia sp. Pv 16 (setting [16]); 0.39 µg/mL (≈ 0.703 µM) with Bacillus subtilis PCI219 (setting [15]). This molecule showed an LD50 in “in vivo” of 150 mg/kg.
Molecule `NCC[C@H](O)C(=O)N[C@@H]1C[C@H](N)[C@@H](O[C@H]2O[C@H](CN)CC[C@H]2N)[C@H](O)[C@H]1O[C@H]1O[C@H](CO)[C@@H](O)[C@H](N)[C@H]1O` [habekacin, 1-N-(4-amino-2-(S)-hydroxybutyryl)-3',4'-dideoxykanamycin B, reference compound] had an LD50 in “in vivo” of 90 mg/kg.
